Assay results published in ChEMBL document CHEMBL3596111, “Synthesis and evaluation of the anti-nociceptive and anti-inflammatory activity of 4-aminoquinoline derivatives” (Bioorg Med Chem, 2015).
Calls of active or inactive are those of the source. No cut-off for these calls is given here.

Tests used:
Mus musculus [1] = experiment: Anti-nociceptive activity in ip dosed Swiss mouse assessed as inhibition of acetic acid-induced writhing dosed 40 mins before acetic acid injection and measured over 25 mins; assay type: functional; conditions: read-out: ID50 (the source's name)
Mus musculus [2] = experiment: Anti-nociceptive activity in ip dosed Swiss mouse assessed as inhibition of acetic acid-induced writhing dosed 40 mins before acetic acid injection and measured over 25 mins relative to control; assay type: functional
Mus musculus [3] = experiment: Anti-nociceptive activity in Swiss mouse assessed as reduction in time spent in licking injected paw during neurogenic phase at 100 umol/kg, ip dosed 40 mins before formalin injection; assay type: functional, organism-based
Mus musculus [4] = experiment: Anti-nociceptive activity in Swiss mouse assessed as reduction in time spent in licking injected paw during inflammatory phase at 100 umol/kg, ip dosed 40 mins before formalin injection; assay type: functional, organism-based
Mus musculus [5] = experiment: Anti-inflammatory activity in Swiss mouse assessed as inhibition of zymosan-induced peritonitis by measuring reduction in leukocyte migration at 100 umol/kg, ip administered 30 min before the zymosan injection; assay type: functional
Mus musculus [6] = experiment: Anti-nociceptive activity in Swiss mouse assessed as reduction in paw licking response during inflammatory phase at 100 umol/kg, ip dosed 40 mins before formalin injection; assay type: functional
Rattus norvegicus [7] = experiment: Anti-inflammatory activity in Wistar rat model complete Freund's adjuvant-induced arthritis assessed as reduction in paw edema at 100 umol/kg, ip dosed from day 14 to day 21 after immunization and measured on day 17; assay type: functional, organism-based
Rattus norvegicus [8] = experiment: Anti-inflammatory activity in Wistar rat model complete Freund's adjuvant-induced arthritis assessed as reduction in paw edema at 100 umol/kg, ip dosed from day 14 to day 21 after immunization and measured on until day of sacrifice; assay type: functional, organism-based
Rattus norvegicus [9] = experiment: Hepatotoxicity in Wistar rat model complete Freund's adjuvant-induced arthritis assessed as effect on serum ALT level at 100 umol/kg, ip dosed from day 14 to day 21 after immunization; assay type: toxicity, organism-based; conditions: in vivo
Rattus norvegicus [10] = experiment: Toxicity in Wistar rat model complete Freund's adjuvant-induced arthritis assessed as effect on spleen weight at 100 umol/kg, ip dosed from day 14 to day 21 after immunization; assay type: organism-based; conditions: in vivo
Rattus norvegicus [11] = experiment: Hepatotoxicity in Wistar rat model complete Freund's adjuvant-induced arthritis assessed as effect on serum AST level at 100 umol/kg, ip dosed from day 14 to day 21 after immunization; assay type: toxicity, organism-based; conditions: in vivo
Rattus norvegicus [12] = experiment: Renal toxicity in Wistar rat model complete Freund's adjuvant-induced arthritis assessed as effect on creatinine levels at 100 umol/kg, ip dosed from day 14 to day 21 after immunization; assay type: organism-based; conditions: in vivo
Rattus norvegicus [13] = experiment: Renal toxicity in Wistar rat model complete Freund's adjuvant-induced arthritis assessed as effect on urea levels at 100 umol/kg, ip dosed from day 14 to day 21 after immunization; assay type: organism-based; conditions: in vivo
Rattus norvegicus [14] = experiment: Anti-inflammatory activity in Wistar rat model complete Freund's adjuvant-induced arthritis assessed as reduction in paw edema at 5 umol/kg, ip dosed from day 14 to day 21 after immunization and measured on day 16; assay type: functional, organism-based
Mus musculus [15] = experiment: Anti-nociceptive activity in Swiss mouse assessed as reduction in paw licking response during inflammatory phase at 10 umol/kg, ip dosed 40 mins before formalin injection; assay type: functional
Mus musculus [16] = experiment: Anti-inflammatory activity in Swiss mouse assessed as inhibition of zymosan-induced peritonitis by measuring reduction in leukocyte migration at 10 umol/kg, ip administered 30 min before the zymosan injection; assay type: functional

For NCCNCCNc1ccnc2cc(Cl)ccc12, the ED50 (Mus musculus [1]) was 39.4 µmol/kg, the Emax (Mus musculus [2]) was 86.4% and the Activity (Mus musculus [3]) was “Active”. The Activity (Mus musculus [4]) was “Active”.
Cc1c(N(C)CS(=O)(=O)O)c(=O)n(-c2ccccc2)n1C [METAMIZOLE] showed an ED50 (Mus musculus [1]) of 36.8 µmol/kg and an Emax (Mus musculus [2]) of 74.8%.
For NCCNCCNc1cc(C(F)(F)F)nc2ccccc12, the ED50 (Mus musculus [1]) was 26.6 µmol/kg, the Emax (Mus musculus [2]) was 95.1% and the Activity (Mus musculus [3]) was “Active”. For the same molecule, the Activity (Mus musculus [4]) was “Active”.
NCCNCCNc1ccnc2cc(C(F)(F)F)ccc12 was tested, and the inhibition in vivo at 100 µmol/kg (Mus musculus [5]) was 59.1%, the ED50 (Mus musculus [1]) was 15.3 µmol/kg and the Emax (Mus musculus [2]) was 96.7%. For the same molecule, the Activity (Mus musculus [3]) was “Active”, the Activity (Mus musculus [4]) was “Active” and the inhibition in vivo at 100 µmol/kg (Mus musculus [6]) was 89.6%. The Activity (Rattus norvegicus [7]) was “Active”, the Activity (Rattus norvegicus [8]) was “Active” and the Activity (Rattus norvegicus [9]) was “Non-toxic”. The Activity (Rattus norvegicus [10]) was “Non-toxic”, the Activity (Rattus norvegicus [11]) was “Non-toxic” and the Activity (Rattus norvegicus [12]) was “Non-toxic”. The Activity (Rattus norvegicus [13]) was “Non-toxic”.
C[C@@H]1C[C@H]2[C@@H]3CCC4=CC(=O)C=C[C@]4(C)[C@@]3(F)[C@@H](O)C[C@]2(C)[C@@]1(O)C(=O)CO was tested, and the Activity (Rattus norvegicus [14]) was “Active”.
Work on COc1ccc2c(c1)c(CC(=O)O)c(C)n2C(=O)c1ccc(Cl)cc1 [INDOMETHACIN] yielded an inhibition in vivo at 10 µmol/kg (Mus musculus [15]) of 50.8% and an inhibition in vivo at 10 µmol/kg (Mus musculus [16]) of 75.8%.
